Here are results for three compounds from ChEMBL document CHEMBL3817816, “Improvement of the pharmacological properties of amidated kyotorphin by means of iodination” (Medchemcomm, 2016).

Data set [1] concerns Kidney. As to the kind of experiment: Stability of compound in Sprague-Dawley rat kidney homogenate assessed as remaining parent compound at 10 mins by RP-HPLC analysis. The data set is classed as ADME, tissue-based. To be noted: tissue homogenate.
In data set [2] the test system is Intestine. As to the kind of experiment: Drug uptake in Sprague-Dawley rat intestine at 11 MBq, ip after 5 mins by gamma counting assay. The format is ADME, organism-based. Particulars: in vivo.
The subject of data set [3] is Stomach. As to the kind of experiment: Drug uptake in Sprague-Dawley rat stomach at 11 MBq, ip after 5 mins by gamma counting assay. The format is ADME, organism-based. To be noted: in vivo.
Data set [4] is described as follows: Stability of compound in saline at 11 kBq/uL up to 1 week at 4 degC by HPLC analysis. The format is physicochemical. Particulars: buffer, 168 h.
The subject of data set [5] is Spleen. Description: Drug uptake in Sprague-Dawley rat spleen at 11 MBq, ip after 5 mins by gamma counting assay. The data set is classed as ADME, organism-based. Particulars: in vivo.
Data set [6] has as its system Liver. Description: Drug uptake in Sprague-Dawley rat liver at 11 MBq, ip after 5 mins by gamma counting assay. The format is ADME, organism-based. Particulars: in vivo.
Data set [7] deals with Spleen. As to the kind of experiment: Drug uptake in Sprague-Dawley rat spleen at 11 MBq, ip after 10mins by gamma counting assay. The data set is classed as ADME, organism-based. Particulars: in vivo.
The test system of data set [8] is Liver. Description: Drug uptake in Sprague-Dawley rat liver at 11 MBq, ip after 10mins by gamma counting assay. The data set is classed as ADME, organism-based. To be noted: in vivo.
In data set [9] the test system is Blood. As to the kind of experiment: Drug uptake in Sprague-Dawley rat blood at 11 MBq, ip after 5 mins by gamma counting assay. The format is ADME, organism-based. Particulars: in vivo.
Data set [10] concerns Stomach. Description: Drug uptake in Sprague-Dawley rat stomach at 11 MBq, ip after 10mins by gamma counting assay. Particulars: in vivo. The data set is classed as ADME, organism-based.
For data set [11], the system named is Heart. As to the kind of experiment: Drug uptake in Sprague-Dawley rat heart at 11 MBq, ip after 5 mins by gamma counting assay. The data set is classed as ADME, organism-based. Particulars: in vivo.
The test system of data set [12] is Thyroid gland. As to the kind of experiment: Drug uptake in Sprague-Dawley rat thyroid at 11 MBq, ip after 5 mins by gamma counting assay. The data set is classed as ADME, organism-based. To be noted: in vivo.
Data set [13] in a line: Octanol-PBS partition coefficient, log P of the compound at pH 7.4 by shake flask method. The format is physicochemical.
The subject of data set [14] is Brain. As to the kind of experiment: Drug uptake in Sprague-Dawley rat brain at 11 MBq, ip after 5 mins by gamma counting assay. Particulars: in vivo. The data set is classed as ADME, organism-based.
The nature of data set [15]: Permeability across apical to basolateral side of mouse bEND.3 cells at 37 kBq/200 uL after 10 hrs by transwell assay relative to control. The data set is classed as ADME.
Data set [16] relates to Liver. As to the kind of experiment: Stability of compound in Sprague-Dawley rat liver homogenate assessed as remaining parent compound […] at 10 mins by RP-HPLC analysis. The format is ADME. Particulars: iv.
Data set [17] relates to Muscle tissue. As to the kind of experiment: Drug uptake in Sprague-Dawley rat muscle at 11 MBq, ip after 5 mins by gamma counting assay. The data set is classed as ADME, organism-based. To be noted: in vivo.
The subject of data set [18] is Thyroid gland. Description: Drug uptake in Sprague-Dawley rat thyroid at 11 MBq, ip after 10mins by gamma counting assay. The data set is classed as ADME, organism-based. To be noted: in vivo.
Data set [19] relates to Femur. As to the kind of experiment: Drug uptake in Sprague-Dawley rat femur at 11 MBq, ip after 10mins by gamma counting assay. The data set is classed as ADME, organism-based. To be noted: in vivo.
Data set [20] has as its system Heart. Description: Drug uptake in Sprague-Dawley rat heart at 11 MBq, ip after 10mins by gamma counting assay. The format is ADME, organism-based. To be noted: in vivo.
Data set [21] concerns Intestine. Description: Drug uptake in Sprague-Dawley rat intestine at 11 MBq, ip after 10mins by gamma counting assay. The data set is classed as ADME, organism-based. To be noted: in vivo.
For data set [22], the system named is Brain. Description: Drug uptake in Sprague-Dawley rat brain at 11 MBq, ip after 10mins by gamma counting assay. The data set is classed as ADME, organism-based. Particulars: in vivo.
The test system of data set [23] is Rattus norvegicus. Description: Analgesic activity in Wistar Han rat assessed as time required to show maximal effect at 44.42 mg/kg, ip administered as single dose by hot plate test. The data set is classed as functional. A general note: Hot-plate and tail-flick tests time the reaction to a heat stimulus.
Data set [24] deals with Kidney. Description: Drug uptake in Sprague-Dawley rat kidney at 11 MBq, ip after 5 mins by gamma counting assay. The data set is classed as ADME, organism-based. Particulars: in vivo.
Data set [25] deals with Muscle tissue. Description: Drug uptake in Sprague-Dawley rat muscle at 11 MBq, ip after 10mins by gamma counting assay. The data set is classed as ADME, organism-based. To be noted: in vivo.
In data set [26] the test system is Femur. Description: Drug uptake in Sprague-Dawley rat femur at 11 MBq, ip after 5 mins by gamma counting assay. To be noted: in vivo. The format is ADME, organism-based.
In data set [27] the test system is Lung. Description: Drug uptake in Sprague-Dawley rat lung at 11 MBq, ip after 10mins by gamma counting assay. The format is ADME, organism-based. To be noted: in vivo.
Data set [28] has as its system Kidney. As to the kind of experiment: Drug uptake in Sprague-Dawley rat kidney at 11 MBq, ip after 10mins by gamma counting assay. Particulars: in vivo. The format is ADME, organism-based.
Data set [29] can be described thus: Stability of compound in Sprague-Dawley rat serum assessed as remaining parent compound at 5 mins by RP-HPLC analysis. The data set is classed as ADME. To be noted: read-out: Stability.
In data set [30] the test system is Lung. As to the kind of experiment: Drug uptake in Sprague-Dawley rat lung at 11 MBq, ip after 5 mins by gamma counting assay. The data set is classed as ADME, organism-based. To be noted: in vivo.
The subject of data set [31] is Blood. As to the kind of experiment: Drug uptake in Sprague-Dawley rat blood at 11 MBq, ip after 10mins by gamma counting assay. The data set is classed as ADME, organism-based. Particulars: in vivo.
For data set [32], the system named is Rattus norvegicus. As to the kind of experiment: Analgesic activity in Wistar Han rat assessed as time required to show maximal effect at 56.47 mg/kg, ip administered as single dose by hot plate test. The data set is classed as functional.
Data set [33] concerns Rattus norvegicus. Description: Analgesic activity in Wistar Han rat assessed as time required to show maximal effect at 5 mg/kg, ip by hot plate test. The data set is classed as functional.

A word on the logD: it is the decadic logarithm of the distribution of all forms, ionised or not, between an organic phase and buffer at a given pH. Higher therefore signals higher lipophilicity. As to `N=C(N)NCCC[C@H](NC(=O)[C@@H](N)Cc1ccc(O)c([125I])c1)C(N)=O`, the values for the Stability result in data set [1], in [4] and in [16] were “Unstable”, “Stable” and “Unstable”, respectively. The Drug uptake in [2] was found to be 1.6 % ID/g; in [3], 0.48 % ID/g; in [5] it was 1.1 % ID/g; in data set [6], 0.9 % ID/g; in [7] it was 0.33 % ID/g; in data set [8], 0.88 % ID/g. Moreover, the Drug uptake was 0.5 % ID/g in data set [9]; 0.98 % ID/g in [10]; 0.26 % ID/g in [11]; 2.7 % ID/g in data set [12]; 0.03 % ID/g in data set [14]; 0.28 % ID/g in data set [17]. For the same compound, the Drug uptake in data set [18] worked out at 0.7 % ID/g; in data set [19], 0.27 % ID/g; in [20] it was 0.32 % ID/g; in data set [21], 1.06 % ID/g; in data set [22], 0.07 % ID/g; in data set [24], 0.5 % ID/g. The Drug uptake in data set [25] was 0.26 % ID/g; in [26], 0.22 % ID/g; in data set [27] it was 0.35 % ID/g; in data set [28], 0.57 % ID/g; in data set [30], 0.5 % ID/g; in data set [31], 0.68 % ID/g. Further, the logD in [13] is -1.8. Moreover, the “fold change (FC)” value in data set [15] is 0.49. Further, in data set [23], the Time turned out to be 30 min. The remaining at 5 min in data set [29] amounted to 72.5%.
For `N=C(N)NCCC[C@H](NC(=O)[C@@H](N)Cc1cc([125I])c(O)c([125I])c1)C(N)=O`, in [32], the Time was determined as 30 min.
With `N=C(N)NCCC[C@H](NC(=O)[C@@H](N)Cc1ccc(O)cc1)C(N)=O`, in [33], the Time worked out at 15 min.
